Experimental data reported in patent publication US20230203060A1 (GENFLEET THERAPEUTICS (SHANGHAI) INC., priority 2020, published 2023).

What was measured:
[1] = system: KRAS G12C mutant NCI-H358 cells; assay: Cell proliferation inhibition experiment, 3D spheroid, CellTiter-Glo, NCI-H358; assay type: cell-based, human; conditions: Homo sapiens, NCI-H358, 120 h, NCI-H358 (KRAS G12C mutant) 3D spheroid, 5 days with compound, CellTiter-Glo; read-out: H358 IC50
Outline: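 CellTiter-Glo luminescence after 5 days' compound treatment (3.16-fold series, 0.1% DMSO) of overnight-formed spheroids in 2% FBS medium: H358 seeded at 800 cells/well in RPMI-1640, A549 at 400 cells/well in F-12K. IC50 derived by four-parameter fit of inhibition normalized to DMSO control and blank.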

[2] = system: phosphorylated ERK downstream of KRAS G12C in MIA PaCa2 cells; assay: Cell p-ERK detection experiment (HTRF) in MIA PaCa2; assay type: cell-based, human; conditions: Homo sapiens, MIA PaCa-2, 2 h, MIA PaCa2 cells, 2 hours with compound, Advance ERK phospho-T202/Y204 HTRF kit; read-out: p-ERK IC50
Outline: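 Phospho-ERK (T202/Y204) measured by HTRF after 30 min lysis and 4 h antibody incubation in MIA PaCa2 (KRAS G12C) cells, seeded at 2.5E4 per well and treated 2 h with compounds in 3.16-fold steps, final DMSO 0.1%. IC50 from a four-parameter fit of percent inhibition relative to DMSO and blank wells.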

Row | IC50 [1] [nM] | IC50 [2] [nM] | Compound
1 | 9 | 80 | C=CC(=O)N1CCN2C(=O)c3c(N4CCOC[C@@H]4C)nc(-c4c(O)cccc4F)c(Cl)c3OC[C@H]2C1 [Z32]
2 | 9 | 145 | C=CC(=O)N1CCN2C(=O)c3c(N4CCOC(C)(C)C4)nc(-c4c(O)cccc4F)c(Cl)c3OC[C@H]2C1 [Z37, (6aR)-8-acryloyl-4-chloro-1-(2,2-dimethylmorpholino)-3-(2-fluoro-6-hydroxyphenyl)-6,6a,7,8,9,10-hexahydro-12H-pyrazino[2,1-c]pyrido[3,4-f][1,4]oxazepin-12-one]
3 | 9 | 140 | C=CC(=O)N1CCN2C(=O)c3c(N4CCC5CC54)nc(-c4c(O)cccc4F)c(Cl)c3OC[C@H]2C1 (stereo partly drawn) [Z39, (6aR)-8-acryloyl-1-(2-azabicyclo[3.1.0]hexart-2-yl)-4-chloro-3-(2-fluoro-6-hydroxyphenyl)-6,6a,7,8,9,10-hexahydro-12H-pyrazino[2,1-c]pyrido[3,4-f][1,4]oxazepin-12-one]
4 | 22 | 322 | C=CC(=O)N1CCN2C(=O)c3c(NC45CC(C4)C5)nc(-c4c(O)cccc4F)c(Cl)c3OC[C@H]2C1 [Z41, (6aR)-8-acryloyl-1-(bicyclo [1.1.1]pentan-1-ylamino)-4-chloro-3-(2-fluoro-6-hydroxyphenyl)-6,6a,7,8,9,10-hexahydro-12H-pyrazino[2,1-c]pyrido[3,4-f][1,4]oxazepin-12-one]
5 | 4 | 62 | C=CC(=O)N1CCN2C(=O)c3c(N4CCC[C@@H]4C)nc(-c4c(O)cccc4F)c(Cl)c3OC[C@H]2C1 [Z49, (6aR)-8-acryloyl-1-((S)-2-methylpyrrolidin-1-yl)-4-chloro-3-(2-fluoro-6-hydroxyphenyl)-6,6a,7,8,9,10-hexahydro-12H-pyrazino[2,1-c]pyrido[3,4-f][1,4]oxazepin-12-one]
6 | 2 | 28 | C=CC(=O)N1CCN2C(=O)c3c(N4CC(O)CC4(C)C)nc(-c4c(O)cccc4F)c(Cl)c3OC[C@H]2C1 (stereo partly drawn) [Z50, (6aR)-8-amyloyl-4-chloro-3-(2-fluoro-6-hydroxyphenyl)-1-(4-hydroxy-2,2-dimethylpyrrolidin-1-yl)-6,6a,7,8,9,10-hexahydro-12H-pyrazino[2,1-c]pyrido[3,4-f][1,4]oxazepin-12-one]
7 | 4 | 73 | C=CC(=O)N1CCN2C(=O)c3c(N4CCN(C)C[C@@H]4C)nc(-c4c(O)cccc4F)c(Cl)c3OC[C@H]2C1 [Z51, (6aR)-8-acryloyl-4-chloro-1-((S)-2,4-dimethylpiperazin-1-yl)-3-(2-fluoro-6-hydroxyphenyl)-6,6a,7,8,9,10-hexahydro-12H-pyrazino[2,1-c]pyrido[3,4-f][1,4]oxazepin-12-one]
8 | 17 | 129 | C=CC(=O)N1CCN2C(=O)c3c(N4CCCC45CC5)nc(-c4c(O)cccc4F)c(Cl)c3OC[C@H]2C1 [Z56, (6aR)-8-acryloyl-4-chloro-3-(2-fluoro-6-hydroxyphenyl)-1-(4-azaspiro[2.4]heptan-4-yl)-6,6a,7,8,9,10-hexahydro-12H-pyrazino[2,1-c]pyrido[3,4-f][1,4]oxazepin-12-one]
9 | 158 | 1480 | C=CC(=O)N1CCN2C(=O)c3c(N4CCN(C)C[C@@H]4C)nc(-c4c(F)cccc4OC)c(F)c3OC[C@H]2C1 [Z451, (6aR)-8-acryloyl-1-((S)-2,4-dimethylpiperazin-1-yl)-4-fluoro-3-(2-fluoro-6-methoxyphenyl)-6,6 a,7,8,9,10-hexahydro-12H-pyrazino[2,1-c]pyrido[3,4-f][1,4]oxazepin-12 (6 aH)-one]
10 | 3.9 | 34 | C=CC(=O)N1CCN2C(=O)c3c(N4CCN(C)C[C@@H]4C)nc(-c4c(O)cccc4Cl)c(Cl)c3OC[C@H]2C1 [Z452, (6aR)-8-acryloyl-4-chloro-3-(2-chloro-6-hydroxyphenyl)-1-((S)-2,4-dimethylpiperazin-1-yl)-6,6a,7,8,9,10-hexahydro-12H-pyrazino[2,1-c]pyrido[3,4-f][1,4]oxazepin-12-one]
11 | 2 | 24 | C=CC(=O)N1CCN2C(=O)c3c(N4CC(N5CCN(C)CC5)CC4(C)C)nc(-c4ccccc4F)c(Cl)c3OC[C@H]2C1 (stereo partly drawn) [Z454, (6aR)-8-acryloyl-4-chloro-1-(2,2-dimethyl-4-(4-methylpiperazin-1-yl)pyrrolidin-1-yl)-3-(2-fluorophenyl)-6,6a,7,8,9,10-hexahydro-12H-pyrazino[2,1-c]pyrido[3,4-f][1,4]oxazepin-12-one]
12 | 9.4 | 77 | C=CC(=O)N1CCN2C(=O)c3c(N4CCN(C)C[C@@H]4C)nc(-c4c(F)cccc4C(F)F)c(Cl)c3OC[C@H]2C1 [Z456, (6aR)-8-acryloyl-4-chloro-3-(2-(difluoromethyl)-6-fluorophenyl)-1-((S)-2,4-dimethylpiperazin-1-yl)-6,6a,7,8,9,10-hexahydro-12H-pyrazino[2,1-c]pyrido[3,4-f][1,4]oxazepin-12-one]
13 | 62.7 | 397 | C=CC(=O)N1CCN2C(=O)c3c(NC(C)(C)C)nc(-c4ccccc4F)c(Cl)c3OC[C@H]2C1 [Z457, (R)-8-acryloyl-1-(tert-butylamino)-4-chloro-3-(2-fluorophenyl)-6,6a,7,8,9,10-hexahydro-12H-pyrazino[2,1-c]pyrido[3,4-f][1,4]oxazepin-12-one]

The next lines start with the molecule.

Row | Compound | IC50 [1] [nM] | IC50 [2] [nM]
14 | C=CC(=O)N1CCN2C(=O)c3c(N4CC(N(C)CC(F)F)CC4(C)C)nc(-c4ccccc4F)c(Cl)c3OCC2C1 (single isomer, unassigned) [Z659-2] | 1 | 22
15 | C=CC(=O)N1CCN2C(=O)c3c(N4C[C@@H](N(C)CCF)CC4(C)C)nc(-c4ccccc4F)c(Cl)c3OC[C@H]2C1 (single isomer, unassigned) [Z660-1] | 1.7 | 19
16 | C=CC(=O)N1CCN2C(=O)c3c(N4C[C@@H](NC)CC4(C)C)nc(-c4ccccc4F)c(Cl)c3OC[C@H]2C1 (single isomer, unassigned) [Z661-1] | 6 | 57
17 | C=CC(=O)N1CCN2C(=O)c3c(N4C[C@@H](NCC(F)(F)F)CC4(C)C)nc(-c4ccccc4F)c(Cl)c3OC[C@H]2C1 (single isomer, unassigned) [Z662-1] | 3 | 32.6
18 | C=CC(=O)N1CCN2C(=O)c3c(N4CCN(C)C[C@@H]4C)nc(-c4ccccc4F)c(Cl)c3OC[C@H]2C1 [Z407-1, (R)-8-acryloyl-4-chloro-1-((S)-2,4-dimethylpiperazin-1-yl)-3-(2-fluorophenyl)-6,6a,7,8,9,10-hexahydro-12H-pyrazino[2,1-c]pyrido[3,4-f][1,4]oxazepin-12-one] | 18.8 | 144
19 | C=CC(=O)N1CCN2C(=O)c3c(N4CC(O)CC4(C)C)nc(-c4ccccc4Cl)c(F)c3OC[C@H]2C1 (stereo partly drawn) [Z414-1, (6aR)-8-acryloyl-3-(2-chlorophenyl)-4-fluoro-1-(4-hydroxy-2,2-dimethylpyrrolidin-1-yl)-6,6a,7,8,9,10-hexahydro-12H-pyrazino[2,1-c]pyrido[3,4-f][1,4]oxazepin-12-one] | 19 | 103
20 | C=CC(=O)N1CCN2C(=O)c3c(N4C[C@@H](N(C)C)CC4(C)C)nc(-c4ccccc4F)c(Cl)c3OC[C@H]2C1 [Z453-1, (R)-8-acryloyl-4-chloro-1-((S)-4-(dimethylamino)-2,2-dimethylpyrrolidin-1-yl)-3-(2-fluorophenyl)-6,6a,7,8,9,10-hexahydro-12H-pyrazino[2,1-c]pyrido[3,4-f][1,4]oxazepin-12-one] | 6 | 116
